For 21 molecules, IC50 results are on record in patent publication US11267812B2 (Mirati Therapeutics, Inc., priority 2016, dated 2022).

The assay has as its system Phospho-ERK in NCI-H358 cells expressing KRas G12C. Briefly: Cellular inhibition of KRas G12C by Phospho-ERK measurement in NCI-H358 cells. The conditions noted are these: Homo sapiens; NCI-H358 cells, 3 hours compound treatment; read-out: IC50 (pERK(Thr202/Tyr204) normalized with GAPDH). The class given is cell-based. The procedure: The cellular inhibition of KRAs G12C by exemplary compounds of the present invention was determined by measuring the amount of a downstream marker of KRas activity, phosphorylated ERK (“Phospho-ERK”).
NCI-H358 cells (ATCC CRL-5807) express KRas G12C and were grown in RPMI medium supplemented with 10% fetal bovine serum, penicillin/streptomycin and 10 mM HEPES. Cells were plated in poly-D-Lysine coated 96-well plates at a concentration of 50,000 cells/well and allowed to attach for 8-12 hours. Diluted compounds were then added at a final concentration of 0.5% DMSO. After 3 hours, the medium was removed, 150 μL of 4% formaldehyde was added and the plates were incubated for 20 minutes. The plates were washed with PBS, and permeabilized using 150 μL of ice cold 100% methanol for 10 minutes. Non-specific antibody binding to the plates was blocked using 100 μL Licor Blocking Buffer (Li-Cor Biotechnology, Lincoln Nebr.) for 1 hour at room temperature. Positive control samples and samples lacking cells were parallel processed with test samples as standards.
The amount Phospho-ERK was determined using an antibody specific for the phosphorylated form of ERK and compared to the amount of GAPDH. Primary antibodies used for detection were added as follows: Phospho-ERK (Cell Signaling cs9101) diluted 1:500 and GAPDH (Millipore MAB374) diluted 1:5000 in Licor block+0.05% Tween 20. The plates were incubated for 2 hours at room temperature. The plates were washed with PBS+0.05% Tween 20.
Secondary antibodies used to visualize primary antibodies were added as follows: Anti-rabbit-680 diluted 1:1000 and Anti-mouse-800 diluted 1:1000 in Licor Block+0.050 Tween 20 and incubated for 1 hour at room temperature. The plates were washed with PBS+0.05% o Tween 20. A100 L aliquot of PBS was added to each well and the plates were read on a LICOR AERIUS plate reader.
The pERK(Thr202/Tyr204) signal was normalized with the GAPDH signal and percent of DMSO control values were calculated. IC50 values were generated using a 4 parameter fit of the dose response curve. Key: “A”≥0.001-≤1 μM; “B”[…] and ND=not determined.
Consider `C=CC(=O)N1CCN(c2nc(OCCCN3CCOCC3)nc3c2CCN(c2cc(O)ccc2OC(F)(F)F)C3)CC1` [Example 90, 1-(4-(7-(5-hydroxy-2-(trifluoromethoxy)phenyl)-2-(3-morpholinopropoxy)-5,6,7,8-tetrahydropyrido[3,4-d]pyrimidin-4-yl)piperazin-1-yl)prop-2-en-1-one], for which the IC50 was in the range of 1 to 1000 nM. On to `C=CC(=O)N1CCN(c2nc(O[C@H](C)CN(C)C)nc3c2CCN(c2cc(O)cc4ccccc24)C3)[C@@H](C)C1` [Example 115, 1-((S)-4-(2-(((R)-1-(dimethylamino)propan-2-yl)oxy)-7-(3-hydroxynaphthalen-1-yl)-5,6,7,8-tetrahydropyrido[3,4-d]pyrimidin-4-yl)-3-methylpiperazin-1-yl)prop-2-en-1-one], for which the IC50 fell in the range of 1 to 1000 nM. With `C=CC(=O)N1CCN(c2nc(OC[C@@H]3CCCN3CC)nc3c2CCN(c2cccc4ccccc24)C3)CC1CC#N` (stereo partly drawn) [Example 233, 2-(1-acryloyl-4-(2-(((S)-1-ethylpyrrolidin-2-yl)methoxy)-7-(naphthalen-1-yl)-5,6,7,8-tetrahydropyrido[3,4-d]pyrimidin-4-yl)piperazin-2-yl)acetonitrile], the IC50 lay within 1 to 1000 nM.

`C=CC(=O)N1CCN(c2nc(OC[C@@H]3COCCN3C)nc3c2CCN(c2cccc4ccccc24)C3)CC1CC#N` (stereo partly drawn) [Example 272, 2-(1-acryloyl-4-(2-(((S)-4-methylmorpholin-3-yl)methoxy)-7-(naphthalen-1-yl)-5,6,7,8-tetrahydropyrido[3,4-d]pyrimidin-4-yl)piperazin-2-yl)acetonitrile]: the IC50 is 1 to 1000 nM.

For the molecule `C=CC(=O)N1CCN(c2nc(OCCCN3C[C@@H]4C[C@H]3CO4)nc3c2CCN(c2cc(O)cc4ccccc24)C3)CC1` [Example 104, 1-(4-(2-(3-((1S,4S)-2-oxa-5-azabicyclo[2.2.1]heptan-5-yl)propoxy)-7-(3-hydroxynaphthalen-1-yl)-5,6,7,8-tetrahydropyrido[3,4-d]pyrimidin-4-yl)piperazin-1-yl)prop-2-en-1-one], the IC50 is 1 to 1000 nM. Then `C=CC(=O)N1CCN(c2nc(O[C@H](C)CN3CC[C@H](OC)C3)nc3c2CCN(c2cc(O)cc4ccccc24)C3)CC1` [Example 64, 1-(4-(7-(3-hydroxynaphthalen-1-yl)-2-(((R)-1-((S)-3-methoxypyrrolidin-1-yl)propan-2-yl)oxy)-5,6,7,8-tetrahydropyrido[3,4-d]pyrimidin-4-yl)piperazin-1-yl)prop-2-en-1-one], with 1 to 1000 nM; and `C=CC(=O)N1CCN(c2nc(OC[C@@H]3C[C@@H](O)CN3C)nc3c2CCN(c2cccc4ccccc24)C3)CC1CC#N` (stereo partly drawn) [Example 218, 2-(1-acryloyl-4-(2-(((2S,4R)-4-hydroxy-1-methylpyrrolidin-2-yl)methoxy)-7-(naphthalen-1-yl)-5,6,7,8-tetrahydropyrido[3,4-d]pyrimidin-4-yl)piperazin-2-yl)acetonitrile], with 1 to 1000 nM; and `C=CC(=O)N1CCN(c2nc(O[C@H](C)CN3CCOCC3)nc3c2CCN(c2cc(O)cc4ccccc24)C3)CC1` [Example 56, (R)-1-(4-(7-(3-hydroxynaphthalen-1-yl)-2-((1-morpholinopropan-2-yl)oxy)-5,6,7,8-tetrahydropyrido[3,4-d]pyrimidin-4-yl)piperazin-1-yl)prop-2-en-1-one], with 1 to 1000 nM. Then `C=CC(=O)N1CCN(c2nc(OC[C@@H]3CCCN3CCOC)nc3c2CCN(c2cc(O)cc4ccccc24)C3)CC1` [Example 144, (S)-1-(4-(7-(3-hydroxynaphthalen-1-yl)-2-((1-(2-methoxyethyl)pyrrolidin-2-yl)methoxy)-5,6,7,8-tetrahydropyrido[3,4-d]pyrimidin-4-yl)piperazin-1-yl)prop-2-en-1-one], with 1 to 1000 nM; and `C=CC(=O)N1CCN(c2nc(OC[C@@H]3CCCN3C)nc3c2CCN(c2c(F)cccc2C(F)(F)F)C3)CC1CC#N` (stereo partly drawn) [Example 275, 2-(1-acryloyl-4-(7-(2-fluoro-6-(trifluoromethyl)phenyl)-2-(((S)-1-methylpyrrolidin-2-yl)methoxy)-5,6,7,8-tetrahydropyrido[3,4-d]pyrimidin-4-yl)piperazin-2-yl)acetonitrile], with 1 to 1000 nM. `C=CC(=O)N1CCN(c2nc(OC[C@@H]3CCCN3C)nc3c2CCN(c2cccc(C)c2C(F)(F)F)C3)CC1CC#N` (stereo partly drawn) [Example 265, 2-(1-acryloyl-4-(7-(3-methyl-2-(trifluoromethyl)phenyl)-2-(((S)-1-methylpyrrolidin-2-yl)methoxy)-5,6,7,8-tetrahydropyrido[3,4-d]pyrimidin-4-yl)piperazin-2-yl)acetonitrile]: the IC50 was in the range of 1 to 1000 nM. Then `CN1CCC[C@H]1COc1nc2c(c(N3CCN(C(=O)/C=C/CN4CCCCC4)[C@@H](CC#N)C3)n1)CCN(c1cccc3ccccc13)C2` [Example 236, 2-((S)-4-(2-(((S)-1-methylpyrrolidin-2-yl)methoxy)-7-(naphthalen-1-yl)-5,6,7,8-tetrahydropyrido[3,4-d]pyrimidin-4-yl)-1-(E-4-(piperidin-1-yl)but-2-enoyl)piperazin-2-yl)acetonitrile], with 1 to 1000 nM; and `C=CC(=O)N1CCN(c2nc(OC[C@H]3CN(C)CCN3)nc3c2CCN(c2cccc4ccccc24)C3)CC1CC#N` (stereo partly drawn) [Example 224, 2-(1-acryloyl-4-(2-(((R)-4-methylpiperazin-2-yl)methoxy)-7-(naphthalen-1-yl)-5,6,7,8-tetrahydropyrido[3,4-d]pyrimidin-4-yl)piperazin-2-yl)acetonitrile], with 1 to 1000 nM; and `C=CC(=O)N1CCN(c2nc(OC[C@H]3CCCN3C)nc3c2CCN(c2cc(O)cc4ccccc24)C3)CC1CC#N` (stereo partly drawn) [Example 178, 2-[4-[7-(3-hydroxy-1-naphthyl)-2-[[(2R)-1-methylpyrrolidin-2-yl]methoxy]-6,8-dihydro-5H-pyrido[3,4-d]pyrimidin-4-yl]-1-prop-2-enoyl-piperazin-2-yl]acetonitrile], with 1 to 1000 nM.

`C=CC(=O)N1CCN(c2nc(OC[C@@H]3CCCN3C)nc3c2CCN(c2cc(F)ccc2OC(F)(F)F)C3)CC1CC#N` (stereo partly drawn) [Example 225, 2-(1-acryloyl-4-(7-(5-fluoro-2-(trifluoromethoxy)phenyl)-2-(((S)-1-methylpyrrolidin-2-yl)methoxy)-5,6,7,8-tetrahydropyrido[3,4-d]pyrimidin-4-yl)piperazin-2-yl)acetonitrile]: the IC50 is 1 to 1000 nM. Then `C=CC(=O)N1CCN(c2nc(OC(C)CN(C)C)nc3c2CCN(c2cc(O)cc4ccccc24)C3)CC1` (stereo not drawn) [Example 11, 1-(4-(2-((1-(dimethylamino)propan-2-yl)oxy)-7-(3-hydroxynaphthalen-1-yl)-5,6,7,8-tetrahydropyrido[3,4-d]pyrimidin-4-yl)piperazin-1-yl)prop-2-en-1-one], with 1 to 1000 nM; and `C=CC(=O)N1CCN(c2nc(OC[C@@H]3CCCN3CCOC)nc3c2CCN(c2cccc4ccccc24)C3)CC1CC#N` (stereo partly drawn) [Example 266, 2-(1-acryloyl-4-(2-(((S)-1-(2-methoxyethyl)pyrrolidin-2-yl)methoxy)-7-(naphthalen-1-yl)-5,6,7,8-tetrahydropyrido[3,4-d]pyrimidin-4-yl)piperazin-2-yl)acetonitrile], with 1 to 1000 nM. Then `C=CC(=O)N1CCN(c2nc(OCC3CCN(C)C3)nc3c2CCN(c2cc(O)cc4ccccc24)C3)CC1` (stereo not drawn) [Example 89, 1-(4-(7-(3-hydroxynaphthalen-1-yl)-2-((1-methylpyrrolidin-3-yl)methoxy)-5,6,7,8-tetrahydropyrido[3,4-d]pyrimidin-4-yl)piperazin-1-yl)prop-2-en-1-one], with 1 to 1000 nM. Then `C=CC(=O)N1CCN(c2nc(O[C@@H]3CCCN(C)C3)nc3c2CCN(c2cc(O)cc4ccccc24)C3)CC1` [Example 67, (R)-1-(4-(7-(3-hydroxynaphthalen-1-yl)-2-((1-methylpiperidin-3-yl)oxy)-5,6,7,8-tetrahydropyrido[3,4-d]pyrimidin-4-yl)piperazin-1-yl)prop-2-en-1-one], with 1 to 1000 nM. For the molecule `C=CC(=O)N1CCN(c2nc(OC[C@H]3CCCN3C)nc3c2CCN(c2cccc(F)c2C(F)(F)F)C3)C[C@@H]1CC#N` [Example 274, 2-((S)-1-acryloyl-4-(7-(3-fluoro-2-(trifluoromethyl)phenyl)-2-(((R)-1-methylpyrrolidin-2-yl)methoxy)-5,6,7,8-tetrahydropyrido[3,4-d]pyrimidin-4-yl)piperazin-2-yl)acetonitrile], the IC50 is 1 to 1000 nM. Consider `C=CC(=O)N1CCN(c2nc(OCCCN3C[C@@H]4C[C@H]3CO4)nc3c2CCN(c2cccc4ccccc24)C3)CC1CC#N` (stereo partly drawn) [Example 154, 2-[4-[7-(1-naphthyl)-2-[3-[(1S,4S)-2-oxa-5-azabicyclo[2.2.1]heptan-5-yl]propoxy]-6,8-dihydro-5H-pyrido[3,4-d]pyrimidin-4-yl]-1-prop-2-enoyl-piperazin-2-yl]acetonitrile], for which the IC50 was in the range of 1 to 1000 nM.
